{"source": "patent US5770563A", "about": "“Heparin- and sulfatide binding peptides from the type I repeats of human thrombospondin and conjugates thereof” (The United States of America as represented by the …, priority 1995, dated 1998)", "key": {"AIDS-KS lesion": {"test_system": "AIDS-KS lesion", "experiment": "Kaposi's sarcoma angiogenic lesion formation in nude mice", "type": "in vivo", "conditions": "intravenous, nude mouse", "description": "For determination of In vivo Angiogenesis, 2×10^6 AIDS-KS cells suspended in phosphate buffered saline without calcium and magnesium (PBS w/o), passage 6-8, were transplanted subcutaneously on day 0 of the flanks of male Balb/c nu/nu athymic mice. The animals were injected intravenously with increasing dilutions of TSP peptide-FICOLL conjugates or the equivalent concentrations of FICOLL mixed in PBS w/o as a control from days 1-5. On day 6 the angiogenic lesions were observed, measured, fixed in 10% formalin, and stained with hematoxylin-eosin."}, "MDA MB435 tumor": {"test_system": "MDA MB435 tumor", "experiment": "MDA MB435 orthotopic tumor growth in nude mice", "type": "in vivo, mouse", "description": "(§1) Tumor cells were allowed to implant for approximately one to three weeks prior to administering the peptide analog or a polysucrose conjugate. […] The inhibitory effect persisted beyond the treatment period, although the growth of the tumors eventually resumed.\nThe presented experiment consisted of two groups of animals. The objective was to test a peptide conjugate for effects on breast carcinoma growth. The treated animals were injected with MDA435 cells alone on day one and then injected intravenously with drugs from day 10 through approximately day 30. Tumor growth and frequency of metastasis were determined in both groups.\nNIH Nu/Nu mice, approximately eight weeks of age are injected with 10^5 MDA MB435 cells by the mammary fat pad route. Mice were anesthetized with 150-200 μl i.p. of a 1:80 dilution in PBS of a solution containing 25 g. tribromoethanol in 12.5 ml tertiary amyl alcohol. The mammary fat pad was cleaned with ethanol and a 10 mm incision was made directly above the site of injection. Mammary fat pad #4 could be observed beneath the skin after the incision was made. Using a 0.1 ml Hamilton syringe and 27 gauge 1/2\" needle, 10 μl of cell suspension, 1×10^5 cells in HBSS, are injected into the fat pad. The incision is closed using 1-2 Autoclips ([…], Clay Adams). Autoclips are removed 7 days post-injection and scarring is minimal.\nSix animals were injected for each condition, per experiment. Animals were earpunched after injection for subsequent identification. Beginning at day 10 and continuing every day until approximately day 30, the experimental animals were injected i.v. (tail vein) with 0.1 ml of the FICOLL conjugate. Primary tumor size was determined twice weekly by length×width×height measurement, and the animals are observed daily for general health. When the primary tumor of any animal exceeded 20 mm in any dimension, all of the animals were sacrificed. The presence of metastases was determined by gross autopsy and examination of H & E stained sections of any suspicious organ and step sections of the lungs and draining lymph nodes. The primary tumors were removed, stripped free of other tissues, and weighed. At any time during the experiment, animals suspected of being in distress were sacrificed and examined as above."}, "[1]": {"test_system": "bovine corneal endothelial cells", "type": "cell-based", "description": "Corneal bovine endothelial cells (BCE cells) were used at passages 2 through 8 (Munjal et al., 1990). BCE cell cultures were maintained in DMEM (low glucose), containing 10% FCS, 4 mM glutamine, 2.5 μg/ml amphotericin B, and 500 U/ml each of penicillin G potassium and streptomycin sulfate (all media components were from Biofluids Inc., Rockville, Md.). BCE cells were grown at 34° in 5% CO2. The media were changed every 2-3 days.\n(§2) Endothelial cell proliferation was measured using the CELL TITER 96™ assay (Promega, Madison, Wis.). 5×10^3 cells were plated into each well of a 96-well culture plate in 0.5 or 5% FCS-containing medium together with the indicated concentrations of growth effectors. After 72 h, 15 μl of dye solution was added to each well, and the plates were incubated for an additional 4 h. Solubilization solution was added, and absorbance at 570 nm was determined after 24 h as described by the manufacturer."}, "[2]": {"test_system": "thrombospondin binding to heparin", "experiment": "Inhibition of 125I-thrombospondin binding to immobilized heparin-BSA", "set-up": "species or system human", "summary_of_the_method": "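Solid-phase binding: heparin-BSA (0.2 μg/well) adsorbed 2 h at 37° in Dulbecco's PBS, blocked with tris-BSA. Peptides in 50 mM tris pH 7.8, NaCl, 1 mM CaCl2, 0.025% NaN3, 1% BSA mixed with 125I-thrombospondin (added at 0.2 μg/ml), 3 h at 4°; after saline washes, bound radioactivity counted.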"}, "Toxicity in nude mice": {"experiment": "Toxicity in nude mice", "type": "in vivo, mouse", "conditions": "free peptide, up to 10 mg/kg", "source_text": "as §1\nBased on published studies of related peptide conjugates (Braatz J. A., Yashuda Y., Olden K., Yamada K. M., Heifetz A. H. (1993): Functional peptide-polyurethane conjugates with extended circulatory half lives. Bioconjugate Chem 4:262-267), the conjugates are predicted have circulating half lives on the order of 10 hours. Free peptides usually have circulating half lives of less than 10 minutes, based on published results. The short half lives were due to clearance or stability of the peptides in plasma. Use of nonhydrolyzable amino acid analogs or capping modifications of the peptides decreases sensitivity to degradation."}, "[3]": {"test_system": "bovine aortic endothelial cells", "experiment": "Proliferation of bovine aortic endothelial cells", "type": "cell-based", "conditions": "free peptide, 40 μM", "description": "as §2\nFICOLL conjugates of peptide 353 (SEQ ID NO:28) (GGWSHWSPWSSC), 354 (SEQ ID NO:29) (CGGWSHWSPWSS), 224 364 g (SEQ ID NO:30) and 387 (SEQ ID NO:30) (three syntheses of KRFKQDGGWSHWSPWSSC), or free FICOLL were tested at the indicated concentrations as inhibitors of proliferation of bovine aortic endothelial cells in DMEM medium containing 0.5% (FIG. 24A) or 5% (FIG. 24B) fetal calf serum. […] Therefore, the conjugates are general inhibitors of both large and small vessel endothelial cell proliferation. […]\nProliferation of bovine aortic endothelial cells was also determined for cells grown in the presence of the indicated concentrations of peptide 246 (KRFKQDGGWSHWSPWSS) (SEQ ID NO:19) or peptide 416 (retro-inverso) in RPMI-HITES (reg medium) or corresponding conditioned medium from MDA 435 breast carcinoma cells. […]"}, "[4]": {"test_system": "MDA MB435 breast carcinoma cells", "experiment": "MDA MB435 human breast carcinoma cell proliferation", "type": "cell-based", "conditions": "free peptide", "description": "Human breast carcinoma cells MDA MB435 (American Type Culture Collection) were grown in RPMI 1640 medium containing 10% fetal calf serum. Proliferation was determined as described in FIG. 18 and 44A, B and C.\nHuman breast carcinoma cells MDA MB435 (American Type Culture Collection) were grown in RPMI 1640 medium containing 10% fetal calf serum. Proliferation was determined in the presence of 0.5% fetal calf serum and bFGF as described in FIG. 19."}, "AIDS-KS cells [5]": {"test_system": "AIDS-KS cells", "experiment": "AIDS-KS cell proliferation", "type": "cell-based, human", "description": "AIDS-KS cell strains were cultured as previously described (Nakamura, S. et al. \"Kaposi's Sarcoma Cells: Long-Term Culture with Growth Factor From Retrovirus-Infected CD4+T Cells\", Science, (1988) 242:426; and Salahuddin, S. Z. et al. \"Angiogenic Properties of kaposi's Sarcoma-Derived Cells After Long-Term Culture In Vitro\", Science (1988) 242:430). TSP was purified from thrombin-stimulated human platelets as described. TSP peptides and peptide conjugates were synthesized corresponding to sequences of human TSP as described.\nFor the cell proliferation assays 1×10^3 cells/well were seeded in triplicate in 24 well flat bottom plates (Falcon, Franklin Lakes, N.J.) that contained the required dilutions of TSP, TSP peptide-FICOLL conjugates, and growth factors: 1) Oncostatin M (OSM) (PreProtech) at 25 ng/ml, or 2) activated lymphocyte conditioned medium (AL-CM) at 20%. After 7 days, the cells were trypsinized and counted using a Coulter Zm Cell Counter (Coulter Corporation). The values are triplicate determinations and the bars indicate standard deviations, n=3."}, "AIDS-KS cells [6]": {"test_system": "AIDS-KS cells", "experiment": "AIDS-KS cell chemotaxis, modified Boyden chamber", "type": "cell-based, human", "description": "Directed migration (chemotaxis) and general migration (chemokinesis) of AIDS-KS cells in culture was measured by the modified Boyden chamber assay using fibronectin coated […] Nucleopore filters as previously described. In brief, the AIDS-KS cells, were trypsinized then resuspended in RPMI 1640 containing […] (GIBCO-BRL) and 20% activated lymphocyte conditioned medium. The trypsinized cells were allowed to recover in suspension for 2 hours, then the cells were recovered by centrifugation and resuspended in RPMI 1640 containing 0.1% BS at 5×10^5 cells/ml prior to adding 100 μl to the upper wells in the chemotaxis chamber. Migration to BSA (0.1%) and OSM was performed in the presence of the indicated concentrations of TSP, and TSP peptide-FICOLL conjugates. After 3 hours incubation at 37° C. filters were stained with Diff Quick (Merz-Dade, Dudingen, Switzerland), and the migrated cells in ten high-power fields were counted. The values are triplicate determinations and the bars indicate standard deviations, n=3."}, "[7]": {"conditions": "polysucrose/FICOLL conjugate, intravenous"}}, "note": "pIC50: −log10 of the molar value. Square brackets hold non-standard residues; d marks the D form. Ends that are not written are not given here. Peptide text beside a SMILES is read from it.", "data": [{"compound": "364f: KRFKQDGGWSHWSPWSSC conjugated to FICOLL, several preparations (also: conjugated to FICOLL) [Peptide 364f]", "values": [{"measurement": "AIDS-KS lesion formation", "setting": "AIDS-KS lesion", "value": "strongly inhibited AIDS-KS lesion formation"}, {"measurement": "tumor growth", "setting": "MDA MB435 tumor; [7]", "value": "delays tumor growth"}]}, {"compound": "N=C(N)NCCC[C@H](NC(=O)[C@@H](N)CCCCN)C(=O)N[C@@H](Cc1ccccc1)C(=O)N[C@@H](CCCCN)C(=O)N[C@@H](CCC(N)=O)C(=O)N[C@@H](CC(=O)O)C(=O)NCC(=O)NCC(=O)N[C@@H](Cc1c[nH]c2ccccc12)C(=O)N[C@@H](CO)C(=O)N[C@@H](Cc1c[nH]cn1)C(=O)N[C@@H](Cc1c[nH]c2ccccc12)C(=O)N[C@@H](CO)C(=O)N1CCC[C@H]1C(=O)N[C@@H](Cc1c[nH]c2ccccc12)C(=O)N[C@@H](CO)C(=O)N[C@@H](CO)C(=O)O", "note": "[Peptide 246, KRFKQDGGWSHWSPWSS] (H-KRFKQDGGWSHWSPWSS-OH)", "values": [{"measurement": "pIC50", "setting": "[1]", "value": 4.40}]}, {"compound": "CC(=O)N[C@H](CS)C(=O)N[C@H](CO)C(=O)N[C@H](CO)C(=O)N[C@H](Cc1c[nH]c2ccccc12)C(=O)N1CCC[C@@H]1C(=O)N[C@H](CO)C(=O)N[C@H](Cc1c[nH]c2ccccc12)C(=O)N[C@H](Cc1c[nH]cn1)C(=O)N[C@H](CO)C(=O)N[C@H](Cc1c[nH]c2ccccc12)C(=O)NCC(=O)NCC(=O)N[C@H](CC(=O)O)C(=O)N[C@H](CCC(N)=O)C(=O)N[C@H](CCCCN)C(=O)N[C@H](Cc1ccccc1)C(=O)N[C@H](CCCNC(=N)N)C(=O)N[C@H](CCCCN)C(N)=O", "note": "[Peptide 416, ri-amKRFKQDGGWSHWSPWSSCac] (Ac-[dC][dS][dS][dW][dP][dS][dW][dH][dS][dW]GG[dD][dQ][dK][dF][dR][dK]-NH2)", "values": [{"measurement": "inhibition of thrombospondin binding to heparin, in words", "setting": "[2]; FICOLL conjugate", "value": "active"}, {"measurement": "inhibition of thrombospondin binding to heparin, in words", "setting": "[2]; free peptide", "value": "retains heparin-binding activity"}, {"measurement": "inhibition of thrombospondin binding to heparin, in words", "setting": "[2]; free peptide, listed as all D-acCSSWPSWHSWGGDQKFRKam", "value": "retained full activity"}, {"measurement": "activity relative to the native sequence", "setting": "[2]; free retro-inverso peptide", "value": "approximately three-fold less"}, {"measurement": "pIC50", "setting": "[2]; retro-inverso peptides, free, read-out: IC50 Inhibitory Activity, Free Peptide", "value": 6.40}, {"measurement": "toxicity", "setting": "Toxicity in nude mice", "value": "without overt toxicity"}, {"measurement": "inhibition of aortic endothelial cell proliferation, in words", "setting": "[3]", "value": "significantly inhibit proliferation"}, {"measurement": "inhibition of MDA MB435 proliferation, in words", "setting": "[4]", "value": "substantial inhibition of MDA cell proliferation"}, {"measurement": "tumor growth, dose response", "setting": "MDA MB435 tumor; 0.2 to 6 mg/kg, treatment with 6 mg/kg", "value": "maximal inhibition of tumor growth"}, {"measurement": "tumor growth", "setting": "MDA MB435 tumor; free peptide, daily intravenous, 2 mg/kg", "value": "significantly inhibited tumor growth"}, {"measurement": "tumor growth", "setting": "MDA MB435 tumor; [7]", "value": "No significant inhibition of tumor growth"}]}, {"compound": "TSP: thrombospondin purified from thrombin-stimulated human platelets", "values": [{"measurement": "inhibition of AIDS-KS cell proliferation, in words", "setting": "AIDS-KS cells [5]", "value": "concentration dependent decrease in cell number"}, {"measurement": "stimulation of AIDS-KS cell motility", "setting": "AIDS-KS cells [6]; added in the lower well", "value": "dose-dependent stimulation of AIDS-KS cell motility"}, {"measurement": "pIC50", "setting": "AIDS-KS cells [6]; added with OSM, read-out: IC50 inhibition of OSM stimulated migration", "value": "> 6.96"}]}]}
